The Kinase Knowledgebase extract (Sharma et al. 2016)

Biological target: MAPK14 (human) (UniProt Q16539)
Assay: Inhibition of MAPK14 Kinase Activity

Sequence of MAPK14 (human) (Q16539 whole entry, looked up): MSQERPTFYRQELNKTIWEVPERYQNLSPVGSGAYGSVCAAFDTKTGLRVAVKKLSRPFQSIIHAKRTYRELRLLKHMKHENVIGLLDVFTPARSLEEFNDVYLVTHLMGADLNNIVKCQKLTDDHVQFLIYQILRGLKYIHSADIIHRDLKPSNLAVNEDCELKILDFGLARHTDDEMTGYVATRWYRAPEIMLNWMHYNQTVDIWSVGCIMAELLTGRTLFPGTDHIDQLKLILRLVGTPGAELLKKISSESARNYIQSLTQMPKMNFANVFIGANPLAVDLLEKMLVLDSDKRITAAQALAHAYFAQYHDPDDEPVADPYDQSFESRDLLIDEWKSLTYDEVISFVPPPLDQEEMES

Row | IC50 [nM] | SMILES
1 | ≤ 1000 | Cc1ccc(Nc2c(C(N)=O)sc3c2ccc(=O)n3-c2ccccc2)cc1Br
2 | ≤ 1000 | Cc1cc(Nc2c(C(N)=O)sc3c2ccc(=O)n3-c2ccccc2C)ccc1F
3 | ≤ 1000 | NC(=O)c1sc2c(ccc(=O)n2-c2ccccc2)c1Nc1cccc(Br)c1
4 | ≤ 1000 | CCOC(=O)c1sc2c(ccc(=O)n2-c2ccc(NS(C)(=O)=O)cc2)c1Nc1ccc(F)cc1F
5 | ≤ 1000 | Cc1cc(Nc2c(C(N)=O)sc3c2ccc(=O)n3-c2ccccc2)ccc1F
6 | ≤ 1000 | NC(=O)c1sc2c(ccc(=O)n2-c2ccccc2)c1Nc1cccc(Cl)c1
7 | ≤ 1000 | CCOC(=O)c1sc2c(ccc(=O)n2-c2ccc(F)cc2)c1Nc1ccc(F)c(C)c1
8 | ≤ 1000 | CCOC(=O)c1sc2c(ccc(=O)n2-c2ccccc2)c1Nc1ccc(C#N)cc1
9 | ≤ 1000 | Cc1cc(Nc2c(C#N)sc3c2ccc(=O)n3-c2ccccc2C)ccc1F
10 | ≤ 1000 | CCOC(=O)c1sc2c(ccc(=O)n2-c2ccccc2)c1Nc1cccc(C)c1C#N
11 | ≤ 1000 | CCOC(=O)c1sc2c(ccc(=O)n2-c2ccc3[nH]ccc3c2)c1Nc1ccccc1
12 | ≤ 1000 | Cc1cccc(Nc2c(C(N)=O)sc3c2ccc(=O)n3-c2ccc(S(C)(=O)=O)cc2)c1
13 | ≤ 1000 | Cc1cc(Nc2c(C(N)=O)sc3c2ccc(=O)n3-c2ccsc2)ccc1F
14 | ≤ 1000 | CCOC(=O)c1sc2c(ccc(=O)n2-c2ccccc2)c1Nc1ccc(F)cc1
15 | ≤ 1000 | Cc1cc(Nc2c(C(=O)N(C)O)sc3c2ccc(=O)n3-c2ccccc2)ccc1F
16 | ≤ 1000 | NC(=O)c1sc2c(ccc(=O)n2-c2ccccc2)c1Nc1ccc(F)cc1
17 | ≤ 1000 | CSc1cccc(Nc2c(C(N)=O)sc3c2ccc(=O)n3-c2ccccc2)c1
18 | ≤ 1000 | CCOC(=O)c1sc2c(ccc(=O)n2-c2ccc(N(C)C)cc2)c1Nc1ccccc1
19 | ≤ 1000 | CCOC(=O)c1sc2c(ccc(=O)n2-c2ccccc2)c1Nc1cccc(Cl)c1

Row | IC50 [nM] | SMILES
20 | ≤ 1000 | CCOC(=O)c1sc2c(ccc(=O)n2-c2ccccc2)c1Nc1cccnc1
21 | ≤ 1000 | CCOC(=O)c1sc2c(ccc(=O)n2-c2ccsc2)c1Nc1ccc(F)c(C)c1
22 | ≤ 1000 | CCOC(=O)c1sc2c(ccc(=O)n2-c2ccc3c(ccn3C)c2)c1Nc1ccccc1C#N
23 | ≤ 1000 | CCOC(=O)c1sc2c(ccc(=O)n2-c2ccsc2)c1Nc1ccccc1
24 | ≤ 1000 | CCOC(=O)c1sc2c(ccc(=O)n2-c2ccc(F)cc2)c1Nc1ccccc1C#N
25 | ≤ 1000 | NC(=O)c1sc2c(ccc(=O)n2-c2ccccc2)c1Nc1cccc(O)c1
26 | ≤ 1000 | CCOC(=O)c1sc2c(ccc(=O)n2-c2ccccc2)c1Nc1ccccc1OC
27 | ≤ 1000 | CCOC(=O)c1sc2c(ccc(=O)n2-c2ccccc2)c1Nc1cccc(OC(F)(F)F)c1
28 | ≤ 1000 | C=Cc1ccc(-n2c(=O)ccc3c(Nc4ccc(F)cc4F)c(C(=O)OCC)sc32)cc1
29 | ≤ 1000 | CCOC(=O)c1sc2c(ccc(=O)n2-c2ccsc2)c1Nc1ccc(F)cc1F
30 | ≤ 1000 | CCOC(=O)c1sc2c(ccc(=O)n2-c2ccccc2)c1Nc1cccnc1Cl
31 | ≤ 1000 | N#Cc1ccccc1Nc1c(C(N)=O)sc2c1ccc(=O)n2-c1ccsc1
32 | ≤ 1000 | CCOC(=O)c1sc2c(ccc(=O)n2-c2ccc3[nH]ccc3c2)c1Nc1ccccc1C#N
33 | ≤ 1000 | CCOC(=O)c1sc2c(ccc(=O)n2-c2ccc(SC)cc2)c1Nc1ccccc1
34 | ≤ 1000 | CCOC(=O)c1sc2c(ccc(=O)n2-c2ccccc2)c1Nc1ccc(OC)c(F)c1
35 | ≤ 1000 | Cc1ccc(-n2c(=O)ccc3c(Nc4ccc(F)c(C)c4)c(C(N)=O)sc32)cc1
36 | ≤ 1000 | CCOC(=O)c1sc2c(ccc(=O)n2-c2ccccc2)c1Nc1ccc(F)c(Cl)c1
37 | ≤ 1000 | Cc1cc(Nc2c(C#N)sc3c2ccc(=O)n3-c2ccccc2Cl)ccc1F

Second part, the compound before the results:

Row | SMILES | IC50 [nM]
38 | Cc1c(Br)cccc1Nc1c(C#N)sc2c1ccc(=O)n2-c1ccccc1 | ≤ 1000
39 | CCN1CCN(C(=O)c2sc3c(ccc(=O)n3-c3ccccc3)c2Nc2ccccc2)CC1 | ≤ 1000
40 | CN(C)c1ccc(-n2c(=O)ccc3c(Nc4ccccc4)c(C(=O)NCCCn4ccnc4)sc32)cc1 | ≤ 1000
41 | N#Cc1sc2c(ccc(=O)n2-c2cccnc2)c1Nc1ccccc1 | ≤ 1000
42 | Cc1cccc(Nc2c(C(N)=S)sc3c2ccc(=O)n3-c2ccccc2)c1 | ≤ 1000
43 | Cc1cccc(Nc2c(C(N)=O)sc3c2ccc(=O)n3CC2CC2)c1 | ≤ 1000
44 | NC(=O)c1sc2c(ccc(=O)n2CC2CC2)c1Nc1ccccc1 | ≤ 1000
45 | C=Cc1ccc(-n2c(=O)ccc3c(Nc4ccccc4)c(C(N)=O)sc32)cc1 | ≤ 1000
46 | CSc1cccc(Nc2c(C#N)sc3c2ccc(=O)n3-c2ccccc2)c1 | ≤ 1000
47 | NC(=O)c1sc2c(ccc(=O)n2-c2ccccc2)c1Nc1ccccc1OC(F)(F)F | ≤ 1000
48 | Cc1cc(Nc2c(C#N)sc3c2ccc(=O)n3CC2CC2)ccc1F | ≤ 1000
49 | O=C(NCCCn1ccnc1)c1sc2c(ccc(=O)n2-c2ccccc2)c1Nc1ccccc1 | ≤ 1000
50 | CCOC(=O)c1sc2c(ccc(=O)n2-c2ccccc2)c1N(C)c1ccccc1 | ≤ 1000
51 | O=C(NCCCN1CCOCC1)c1sc2c(ccc(=O)n2-c2ccccc2)c1Nc1ccccc1 | ≤ 1000
52 | N#Cc1sc2c(ccc(=O)n2-c2ccccc2)c1Nc1cccc(Cl)c1 | ≤ 1000
53 | O=C(c1sc2c(ccc(=O)n2-c2ccccc2)c1Nc1ccc(F)cc1)N1CCCC1 | ≤ 1000
54 | O=c1ccc2c(Nc3cccc(Cl)c3)csc2n1-c1ccccc1 | ≤ 1000
55 | N#Cc1sc2c(ccc(=O)n2-c2ccccc2)c1Nc1ccc(F)cc1F | ≤ 1000
56 | CC(=O)c1sc2c(ccc(=O)n2-c2ccccc2)c1Nc1ccccc1 | ≤ 1000
57 | CON(C)C(=O)c1sc2c(ccc(=O)n2-c2ccccc2)c1Nc1ccccc1 | ≤ 1000
58 | Cc1ccc(Nc2c(C#N)sc3c2ccc(=O)n3CC2CC2)cc1C | ≤ 1000
59 | CCN(CC)C(=N)c1sc2c(ccc(=O)n2-c2ccccc2)c1Nc1cccc(C)c1 | ≤ 1000
60 | Cc1cccc(Nc2c(C#N)sc3c2ccc(=O)n3-c2ccc(F)cc2)c1 | ≤ 1000

Row | SMILES | IC50 [nM]
61 | CCOC(=O)c1sc2c(ccc(=O)n2CC2CCCCO2)c1Nc1ccc(F)cc1F (stereo not given) | ≤ 1000
62 | O=C(c1sc2c(ccc(=O)n2-c2ccccc2)c1Nc1ccccc1)N1CCCCC1 | ≤ 1000
63 | CCN(CC)CCN(C)C(=O)c1sc2c(ccc(=O)n2-c2ccccc2)c1Nc1ccccc1 | ≤ 1000
64 | C[S+]([O-])c1ccc(-n2c(=O)ccc3c(Nc4ccccc4C#N)c(C(N)=O)sc32)cc1 (stereo not given) | ≤ 1000
65 | Cc1ccc(C#N)c(Nc2c(C(N)=O)sc3c2ccc(=O)n3-c2ccccc2)c1 | ≤ 1000
66 | N#Cc1sc2c(ccc(=O)n2-c2ccccc2)c1Nc1cccc(Br)c1 | ≤ 1000
67 | N#Cc1sc2c(ccc(=O)n2-c2ccccc2)c1Nc1ccccc1 | ≤ 1000
68 | NC(=O)c1sc2c(ccc(=O)n2-c2ccccc2)c1Nc1ccccc1 | ≤ 1000
69 | N#Cc1sc2c(ccc(=O)n2-c2ccc(OC[C@@H](O)CO)cc2)c1Nc1ccc(F)cc1F | ≤ 1000
70 | Cc1cccc(Nc2c(C#N)sc3c2ccc(=O)n3-c2ccccc2)n1 | ≤ 1000
71 | O=C(NC1CCNC1)c1sc2c(ccc(=O)n2-c2ccccc2)c1Nc1ccc(F)cc1F (stereo not given) | ≤ 1000
72 | N#Cc1sc2c(ccc(=O)n2-c2ccccc2)c1Nc1cccc(OC(F)(F)F)c1 | ≤ 1000
73 | Cc1ccc(Nc2c(C(N)=O)sc3c2ccc(=O)n3CC2CC2)c(C)c1 | ≤ 1000
74 | Cc1cccc(Nc2c(C(N)=O)sc3c2ccc(=O)n3CC2CC2)c1C#N | ≤ 1000
75 | NC(=O)c1sc2c(ccc(=O)n2Cc2ccccc2)c1Nc1ccccc1 | ≤ 1000
76 | CC(=O)c1ccc(-n2c(=O)ccc3c(Nc4cccc(Cl)c4)c(C#N)sc32)cc1 | ≤ 1000
77 | Cc1cc(=O)n(-c2ccccc2)c2sc(C(N)=O)c(Nc3ccccc3)c12 | ≤ 1000
78 | N#Cc1sc2c(ccc(=O)n2-c2ccccc2)c1Nc1cc(Cl)cc(Cl)c1 | ≤ 1000
79 | N#Cc1cccc(Nc2c(C(=O)N3CCCC3)sc3c2ccc(=O)n3-c2ccccc2)c1 | ≤ 1000
80 | CN(C)CCN(C)C(=O)c1sc2c(ccc(=O)n2-c2ccccc2)c1Nc1ccccc1 | ≤ 1000
81 | Cc1ccc(-n2c(=O)ccc3c(Nc4cccc(C)c4)c(C#N)sc32)cc1 | ≤ 1000
82 | N#Cc1sc2c(ccc(=O)n2-c2ccccc2)c1Nc1cccc([N+](=O)[O-])c1 | ≤ 1000
83 | CON(C)C(=O)c1sc2c(ccc(=O)n2-c2ccc(N(C)C)cc2)c1Nc1ccccc1 | ≤ 1000

Row | SMILES | IC50 [nM]
84 | NC(=O)c1sc2c(ccc(=O)n2-c2ccccc2)c1Nc1c(Cl)cccc1Cl | ≤ 1000
85 | N#Cc1ccccc1Nc1c(C(N)=O)sc2c1ccc(=O)n2-c1ccccc1 | ≤ 1000
86 | O=c1ccc2c(Nc3ccccc3)csc2n1-c1ccccc1 | ≤ 1000
87 | NNC(=O)c1sc2c(ccc(=O)n2-c2ccccc2)c1Nc1ccccc1 | ≤ 1000
88 | NC(=O)c1sc2c(ccc(=O)n2CC2CC2)c1Nc1ccc(F)c(Cl)c1 | ≤ 1000
89 | O=C(O)c1sc2c(ccc(=O)n2-c2ccc3[nH]ccc3c2)c1Nc1ccccc1 | ≤ 1000
90 | Cc1cccc(Nc2c(C#N)sc3c2ccc(=O)n3CC2CC2)c1 | ≤ 1000
91 | N#Cc1sc2c(ccc(=O)n2-c2ccc(OC[C@H](O)CO)cc2)c1Nc1ccc(F)cc1F | ≤ 1000
92 | N#Cc1sc2c(ccc(=O)n2-c2ccccc2)c1Nc1ccccc1OC(F)(F)F | ≤ 1000
93 | COC(=O)NNC(=O)c1sc2c(ccc(=O)n2-c2ccccc2)c1Nc1ccc(F)cc1F | ≤ 1000
94 | Cc1cccc(Nc2c(C(N)=O)sc3c2ccc(=O)n3-c2ccccc2)c1C#N | ≤ 1000
95 | NC(=O)c1sc2c(ccc(=O)n2-c2ccccc2Cl)c1Nc1ccccc1 | ≤ 1000
96 | COc1ccc(-n2c(=O)ccc3c(Nc4ccc(F)cc4F)c(C#N)sc32)cc1 | ≤ 1000
97 | CCOC(=O)c1sc2c(ccc(=O)n2CC2CC2)c1Nc1ccccc1 | ≤ 1000
98 | N#Cc1sc2c(ccc(=O)n2-c2ccccc2)c1Nc1c(Cl)cccc1Cl | ≤ 1000
99 | N#Cc1sc2c(ccc(=O)n2-c2ccccc2)c1Nc1cccc(O)c1 | ≤ 1000
100 | Cc1cccc(Nc2c(C(N)=O)sc3c2ccc(=O)n3-c2ccccc2)n1 | ≤ 1000
101 | O=C(c1sc2c(ccc(=O)n2-c2ccccc2)c1Nc1ccc(F)cc1F)N1CCOCC1 | ≤ 1000
102 | O=C(NCCN1CCCCC1)c1sc2c(ccc(=O)n2-c2ccccc2)c1Nc1ccc(F)cc1F | ≤ 1000
103 | CCOC(=O)c1sc2c(ccc(=O)n2CCOCCOC)c1Nc1ccccc1 | ≤ 1000
104 | Cc1ccc(Nc2c(C#N)sc3c2ccc(=O)n3CC2CC2)c(C)c1 | ≤ 1000
105 | N#Cc1sc2c(ccc(=O)n2CC2CC2)c1Nc1ccccc1 | ≤ 1000
